Literature values in patent publication US12251380B2, “Depot systems comprising cariprazine or salts thereof” (Mapi Pharma Ltd., priority 2022, dated 2025).
Where two headings read alike, the source gives them in different places.

Details: schizophrenic patients

Structure (SMILES)	elimination half-life (oral Cariprazine)	elimination half-life (active metabolite after oral Cariprazine)
CN(C)C(=O)N[C@H]1CC[C@H](CCN2CCN(c3cccc(Cl)c3Cl)CC2)CC1 [Cariprazine, trans-N-{4-[2-[4-(2,3-dichlorophenyl)piperazine-1-yl]ethyl]cyclohexyl}-N′,N′-dimethylurea]	2 to 5 days	–
NC(=O)NC1CCC(CCN2CCN(c3cccc(Cl)c3Cl)CC2)CC1 (centres unmarked) [didesmethyl Cariprazine]	–	2-3 weeks
